Patent US12269803B2, “Krüppel-like factor 15 (KLF15) small molecule agonists in kidney disease” (United States Government as represented by the Department …, priority 2020, dated 2025)
Values after ≈ are worked out from the molar mass of the structure shown. “Also recorded” adds a separate entry of the source.

How the values were obtained:
human podocytes [1] = assay: Podocyte survival (Renilla, cell viability) after LPS treatment; type: cell-based; details: LPS-treated human podocytes
Description: (§1) FIG. 10A-D show representative data illustrating the dose-response curve and EC50 (FIG. 10A), KLF15 reporter activity (FIG. 10B), and Renilla activity (cell viability) (FIG. 10C) in LPS-treated HP, and the therapeutic efficacy in abrogating albuminuria (biomarker of kidney disease) in LPS-treated mice (FIG. 10D).
(§2) After the synthesis of these novel analogues, a primary screening assay was conducted.

KLF15 reporter = KLF15 reporter activity in LPS-treated human podocytes (podocyte stress model); type: cell-based
Description: as §1, §2

[2] = Stability in pH 7.4 phosphate buffer; type: physicochemical; details: 37° C., 1 μM
Description: Studies were carried out in pH 7.4 phosphate buffer. The buffer was prepared by combining 50 mL of 0.2 M KH2PO4 with 150 mL of H2O, and then adjusting to pH 7.4 with 10 N NaOH. The buffer was adjusted to pH 7.4 prior to initiating the experiments. […] Aliquots of the DMSO solutions were dosed into 0.5 mL of matrix, which had been pre-warmed to 37° C., at a final lead compound concentration of 1 μM. Individual tubes were dosed for each timepoint. The vials were kept in a benchtop Thermomixer for the duration of the experiment. At each time point (0, 30, 60, and 120 minutes), an equal volume of acetonitrile was added to the appropriate tubes. Samples were stored at 4° C. until the end of the experiment. After the final time point was sampled, the plate was mixed and then centrifuged at 3,000 rpm for 10 minutes. Aliquots of the supernatant were removed, diluted 1:1 into distilled water, and analyzed by LC-MS/MS.

human podocytes [3] = assay: Toxicity to human podocytes in primary screening assay (Renilla, cell viability); type: cell-based; details: 1 μM, 24 hr
Description: as §2

[4] = system: Caco-2 cells (clone C2BBe1); assay: Caco-2 permeability; type: in vitro ADME; details: for Papp AVG / Papp R1 / Recovery: 5 μM, 120 minutes; for Efflux Ratio / Significant Efflux: Caco-2; for Absorption Potential Classification: Caco-2, from Papp (A-to-B)
Description: Caco-2 cells (clone C2BBe1) were obtained from American Type Culture Collection (Manassas, VA). Cell monolayers were grown to confluence on collagen-coated, microporous membranes in 12-well assay plates. Details of the plates and their certification are shown below. The permeability assay buffer was Hanks' balanced salt solution containing 10 mM HEPES and 15 mM glucose at a pH of 7.4. The buffer in the receiver chamber also contained 1% bovine serum albumin. The dosing solution concentration was 5 μM of lead compound in the assay buffer. Cell monolayers were dosed on the apical side (A-to-B) or basolateral side (B-to-A) and incubated at 37° C. with 5% CO2 in a humidified incubator. Samples were taken from the donor and receiver chambers at 120 minutes. Each determination was performed in duplicate. The flux of lucifer yellow was also measured post-experimentally for each monolayer to ensure no damage was inflicted to the cell monolayers during the flux period. […] The apparent permeability (Papp) and percent recovery were calculated and provided.

[5] = Equilibrium solubility in aqueous buffers; type: physicochemical
Description: The pH 2.0 buffer was prepared by combining 50 mL of 0.2 M KCl with 150 mL of H2O, and then adjusting to pH 2.0 with 10 N HCl. […] The pH 7.4 buffer was prepared by combining 50 mL of 0.2 M KH2PO4 with 150 mL of H2O, and then adjusting to pH 7.4 with 10 N NaOH. At least 0.3 mg of powder for each lead compound was combined with 1 mL of each buffer to make a ≥0.3 mg/mL mixture. These samples were shaken on a Thermomixer® overnight at room temperature. The samples were then centrifuged for 10 minutes at 14,000 rpm. The supernatant was sampled and diluted in duplicate 10-, 100-, 1,000-, and 10,000-fold into a mixture of 1:1 buffer:acetonitrile (ACN) prior to analysis. […] Standard concentrations ranged from 1.0 μM to 0.3 nM.

KLF15 promoter [6] = assay: KLF15 reporter human podocyte assay (HTS, dose-response, primary screening); type: cell-based; details: for KLF15 reporter activity, primary screening assay: 1 μM, 24 hr, vs DMSO; for maximal KLF15 reporter activity: dose escalation, at similar concentrations to DEX; for EC50: dose-response curve, human podocytes, luciferase/renilla
Description: A stable reporter assay directed at KLF15 promoter region (4.3 kb region) was generated in human podocytes, a fragment of human KLF15 promoter upstream of the start codon, by amplifying and subcloning it into the firefly luciferase reporter plasmid (co-transfection with renilla to serve as internal controls). KLF15 promoter activity is measured as a ratio of luciferase to renilla activity. Using this reporter cell line, a cell-based HTS assay was developed using recently reported cell-seeding methodology specific to cultured podocytes (16).

human liver microsomes = assay: Stability in human liver microsomes
Description: Mixed-gender human liver microsomes (Lot #1010420) were purchased from XenoTech. The reaction mixture, minus NADPH, was prepared as described below. […] The control compound, testosterone, was run simultaneously with the lead compounds in a separate reaction. The reaction mixture (without cofactor) was equilibrated in a shaking water bath at 37° C. for 3 minutes. The reaction was initiated by the addition of the cofactor, and the mixture was incubated in a shaking water bath at 37° C. Aliquots (100 μL) were withdrawn at 0, 10, 20, 30, and 60 minutes. Each lead compound and testosterone samples were immediately combined with 400 μL of ice-cold 50/50 acetonitrile (ACN)/H2O containing 0.1% formic acid and internal standard to terminate the reaction. The samples were then mixed and centrifuged to precipitate proteins. All samples were assayed by LC-MS/MS using electrospray ionization. The peak area response ratio (PARR) to internal standard was compared to the PARR at time 0 to determine the percent remaining at each time point. Half-lives and clearance were calculated using GraphPad software, fitting to a single-phase exponential decay equation.

LPS-treated mice = assay: LPS-induced albuminuria murine model; type: in vivo; details: C57BL/6 mice, LPS 10 μg/g, subcutaneous minipump 3.5 μg/day for 48 hours, vs DMSO
Description: Referring to FIG. 10D, C57BL/6 mice were treated with lipopolysaccharide (LPS) at dose of 10 μg/g in two divided doses 24 hours apart intraperitoneally to induce podocyte injury and albuminuria.

KLF15 promoter [7] = assay: KLF15 promoter activity in human podocytes, KLF15 agonist combined with dexamethasone; type: cell-based; details: for KLF15 promoter activity, single agent: alone (DEX 1 μM), vs DMSO-treated human podocytes; for KLF15 promoter activity, combination with DEX: vs DEX 1 μM
[8] = pH 2, room temperature overnight
[9] = pH 4, room temperature overnight
[10] = pH 7.4, room temperature overnight
[11] = human liver microsomes, 1 μM, 37° C.
[12] = human liver microsomes, Clint = k/P

| SMILES | podocyte survival after LPS treatment (human podocytes [1]) | KLF15 reporter activity after LPS treatment (KLF15 reporter) | Percent Remaining 0 min [2] | Percent Remaining 30 min [2] | Percent Remaining 60 min [2] | Percent Remaining 120 min [2] | toxicity to human podocytes (human podocytes [3]) | Papp AVG ([4]; A-to-B) | Papp R1 ([4]; A-to-B) | Recovery ([4]; A-to-B) | Papp AVG ([4]; B-to-A) | Papp R1 ([4]; B-to-A) | Recovery ([4]; B-to-A) | Efflux Ratio [4] | Significant Efflux [4] | Absorption Potential Classification [4] | Solubility AVG [5, 8] | Solubility R1 [5, 8] | KLF15 reporter activity, primary screening assay (KLF15 promoter [6]) | maximal KLF15 reporter activity (KLF15 promoter [6]) | further results |
| --- | --- | --- | --- | --- | --- | --- | --- | --- | --- | --- | --- | --- | --- | --- | --- | --- | --- | --- | --- | --- | --- |
| CSc1ccc(NC(=O)Nc2ccc(C)nc2)cc1 [BT503] | improved; also recorded: improve podocyte survival | improved KLF15 reporter activity | 100 | 90.6 | 87.6 | 80.5 | no observed toxicity | 10.7 10^−6 cm/s | 13.1 10^−6 cm/s | 59.7% | 9.7 10^−6 cm/s | 9.06 10^−6 cm/s | 69% | 0.909 | No (Significant Efflux: ER ≥ 2.0 and Papp (B-to-A) ≥ 1.0 × 10^−6 cm/s) | High (Papp (A-to-B) ≥ 1.0 × 10^−6 cm/s: High) | 343 µM (≈ 93.8 µg/mL) | 332 µM (≈ 90.8 µg/mL) | significantly induced KLF15 reporter activity | higher maximal KLF15 reporter activity | Solubility AVG [5, 9]: 17.3 µM (≈ 4.73 µg/mL); Solubility R1 [5, 9]: 17.4 µM (≈ 4.76 µg/mL); Solubility AVG [5, 10]: 34.5 µM (≈ 9.43 µg/mL); Solubility R1 [5, 10]: 31.6 µM (≈ 8.64 µg/mL); EC50 (KLF15 promoter [6]): ~7.1 nM; Half-Life (human liver microsomes; [11]): 13 min; Percent Remaining 0 min (human liver microsomes; [11]): 100; Percent Remaining 10 min (human liver microsomes; [11]): 60.1; Percent Remaining 20 min (human liver microsomes; [11]): 35.3; Percent Remaining 30 min (human liver microsomes; [11]): 18.5; Percent Remaining 60 min (human liver microsomes; [11]): 3.3; CLint (intrinsic clearance) (human liver microsomes; [12]): 0.107 mL/min/mg protein; albuminuria (LPS-treated mice): significantly reduced albuminuria; KLF15 promoter activity, single agent (KLF15 promoter [7]): significantly induced KLF15 promoter activity; KLF15 promoter activity, combination with DEX (KLF15 promoter [7]; compound 10 nM + DEX 0.5 μM): synergistic effect; KLF15 promoter activity, combination with DEX (KLF15 promoter [7]; compound 100 nM + DEX 0.5 μM): synergistic effect; KLF15 promoter activity, combination with DEX (KLF15 promoter [7]; compound 0.5 μM + DEX 0.5 μM): synergistic effect |
| C[C@@H]1C[C@H]2[C@@H]3CCC4=CC(=O)C=C[C@]4(C)[C@@]3(F)[C@@H](O)C[C@]2(C)[C@@]1(O)C(=O)CO [DEX, dexamethasone, reference compound] |  |  |  |  |  |  |  |  |  |  |  |  |  |  |  |  |  |  |  |  | EC50 (KLF15 promoter [6]): 5410 nM |
| CSc1ccc(NC(=O)Nc2ccc(B3OC(C)(C)C(C)(C)O3)cc2)cc1 [BT412] | improved; also recorded: improve podocyte survival | improved KLF15 reporter activity |  |  |  |  | no observed toxicity |  |  |  |  |  |  |  |  |  |  |  | significantly induced KLF15 reporter activity | higher maximal KLF15 reporter activity |  |
| CSc1ccc(-c2nc(-c3ccc(O)cc3)no2)cc1 [BT514] | improved; also recorded: improve podocyte survival | improved KLF15 reporter activity |  |  |  |  | no observed toxicity |  |  |  |  |  |  |  |  |  |  |  | significantly induced KLF15 reporter activity |  |  |
| CSc1ccc(NC(=O)Nc2ccc(C#N)cn2)cc1 [BT502] | improved | improved KLF15 reporter activity | 100 | 99.7 | 87 | 88.7 | no observed toxicity | 15.2 10^−6 cm/s | 14.6 10^−6 cm/s | 63.1% | 7.34 10^−6 cm/s | 6.35 10^−6 cm/s | 67.1% | 0.481 | No (Significant Efflux: ER ≥ 2.0 and Papp (B-to-A) ≥ 1.0 × 10^−6 cm/s) | High (Papp (A-to-B) ≥ 1.0 × 10^−6 cm/s: High) | 22.2 µM (≈ 6.31 µg/mL) | 21.8 µM (≈ 6.2 µg/mL) | significantly induced KLF15 reporter activity | higher maximal KLF15 reporter activity | Solubility AVG [5, 9]: 10.4 µM (≈ 2.96 µg/mL); Solubility R1 [5, 9]: 10.4 µM (≈ 2.96 µg/mL); Solubility AVG [5, 10]: 28.1 µM (≈ 7.99 µg/mL); Solubility R1 [5, 10]: 28.4 µM (≈ 8.08 µg/mL); Half-Life (human liver microsomes; [11]): 17 min; Percent Remaining 0 min (human liver microsomes; [11]): 100; Percent Remaining 10 min (human liver microsomes; [11]): 63.9; Percent Remaining 20 min (human liver microsomes; [11]): 45.3; Percent Remaining 30 min (human liver microsomes; [11]): 29.6; Percent Remaining 60 min (human liver microsomes; [11]): 8.53; CLint (intrinsic clearance) (human liver microsomes; [12]): 0.0813 mL/min/mg protein; albuminuria (LPS-treated mice): significantly reduced albuminuria; KLF15 promoter activity, single agent (KLF15 promoter [7]): significantly induced KLF15 promoter activity; KLF15 promoter activity, combination with DEX (KLF15 promoter [7]; compound 100 nM + DEX 0.5 μM): synergistic effect; KLF15 promoter activity, combination with DEX (KLF15 promoter [7]; compound 0.5 μM + DEX 0.5 μM): synergistic effect |
| CC1(C)OB(c2ccc(C(N)=NO)cc2)OC1(C)C [BT506] |  |  |  |  |  |  | Toxicity |  |  |  |  |  |  |  |  |  |  |  |  |  |  |
| CSc1ccc(NC(=O)c2ccc(O)cc2)cc1 [BT501] | improve podocyte survival |  | 100 | 88.4 | 92.1 | 87.7 | no observed toxicity | 35.5 10^−6 cm/s | 32.5 10^−6 cm/s | 66.7% | 35 10^−6 cm/s | 32.5 10^−6 cm/s | 81.7% | 0.987 | No (Significant Efflux: ER ≥ 2.0 and Papp (B-to-A) ≥ 1.0 × 10^−6 cm/s) | High (Papp (A-to-B) ≥ 1.0 × 10^−6 cm/s: High) | 97.7 µM (≈ 25.3 µg/mL) | 99.7 µM (≈ 25.9 µg/mL) | significantly induced KLF15 reporter activity | higher maximal KLF15 reporter activity | Solubility AVG [5, 9]: 153 µM (≈ 39.7 µg/mL); Solubility R1 [5, 9]: 157 µM (≈ 40.7 µg/mL); Solubility AVG [5, 10]: 269 µM (≈ 69.8 µg/mL); Solubility R1 [5, 10]: 279 µM (≈ 72.4 µg/mL); CLint (intrinsic clearance) (human liver microsomes; human, microsomes): 0.0387 mL/min/mg protein; Half-Life (human liver microsomes; human, microsomes): 35.8 min; albuminuria (LPS-treated mice): significantly reduced albuminuria; KLF15 promoter activity, single agent (KLF15 promoter [7]): significantly induced KLF15 promoter activity; KLF15 promoter activity, combination with DEX (KLF15 promoter [7]; compound 0.5 μM + DEX 0.5 μM): synergistic effect |
